Data reported in patent US8158596B2, “Materials and methods for FOXP3 tumor suppression” (The Regents of the University of Michigan, priority 2007, dated 2012).

Legend:
[1] = tested on: FOXP3 gene; test: FOXP3 gene induction in prostate cancer cell lines by methyltransferase inhibitor; assay type: cell-based, human; conditions: prostate cancer cell lines PC3 and Du145
Experimental: Using a quantitative pyrosequencing method for FOXP3 analysis, the level of methylation in both the intronic CpG motif and the CpG island was quantitated in the promoter region of FOXP3, using DNA from 17 cases of micro-dissected normal and cancerous tissues. […] Morover, the increase in methylation strongly correlate with reduction of FOXP3 expression. To verify the significance of DNA methylation, prostate cancer cell lines PC3 and Du145 were treated with a methyltransferase inhibitor (5-aza-2′-deoxycytidine (5-AZA)).

[2] = biological target: T1, p38 (Mus musculus, UniProt P47811); assay type: cell-based; conditions: 4T1 cells; anisomycin 1 μg/ml, PMA 0.5 μg/ml
T1 construct: Western blots of the cell lysates were obtained using antibodies specific for phospho-ATF2, phospho-p38; endogenous in cells; host or cells: 4T1 mouse mammary tumor cells
T1 sequence (P47811 whole entry): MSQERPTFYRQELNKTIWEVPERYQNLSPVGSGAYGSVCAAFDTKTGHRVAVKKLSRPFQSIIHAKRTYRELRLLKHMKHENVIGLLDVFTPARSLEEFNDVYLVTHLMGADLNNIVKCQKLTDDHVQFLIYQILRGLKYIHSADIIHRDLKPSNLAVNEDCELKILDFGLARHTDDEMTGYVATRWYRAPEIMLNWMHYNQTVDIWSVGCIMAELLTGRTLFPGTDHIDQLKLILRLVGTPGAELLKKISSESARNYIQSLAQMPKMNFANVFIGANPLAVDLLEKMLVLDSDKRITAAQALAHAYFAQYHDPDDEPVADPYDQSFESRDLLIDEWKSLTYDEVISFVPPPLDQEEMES
Experimental: (§1) 4T1 cells were treated with either vehicle control, anisomycin (1 μg/ml) or PMA (0.5 μg/ml). Western blots of the cell lysates were obtained using antibodies specific for phospho-ATF2, phospho-p38, ATF2, phospho-JNK1/2, phospho-c-Jun. Levels of beta-actin were used as loading controls.
Cells of a mammary tumor cell line were treated with anisomycin in conjunction with inhibitors of overlapping specificity. […] Western blots of the cell lysates were obtained using antibodies specific for phosphor-ATF2, phospho-p38, ATF2, phospho-JNK1/2, phospho-c-Jun. Levels of beta-actin were used as loading controls.

[3] = tested on: JNK; test: Western blot of phospho-JNK1/2 in 4T1 cells; assay type: cell-based, mouse; conditions: for activation of JNK: anisomycin 1 μg/ml, PMA 0.5 μg/ml
Experimental: as §1, with “To identify the mechanism by which anisomycin induced FoxP3, the activation of ATF2, p38, and JNK upon treatment with either anisomycin or PMA was compared. 4T1” for “4T1”
(§2) Cells of a mammary tumor cell line were treated with anisomycin in conjunction with inhibitors of overlapping specificity. Specifically, 4T1 cells were treated with vehicle control, anisomycin (1 μg/ml) or PMA (0.5 μg/ml) in the presence or absence of inhibitors (2 μg/ml): SP10096 (SP), SB203580 (SB), and PD9786 (PD). Western blots of the cell lysates were obtained using antibodies specific for phosphor-ATF2, phospho-p38, ATF2, phospho-JNK1/2, phospho-c-Jun. Levels of beta-actin were used as loading controls.

[4] = tested on: c-Jun; test: Western blot of phospho-c-Jun in 4T1 cells; assay type: cell-based, mouse; conditions: for activation of c-Jun: anisomycin 1 μg/ml, PMA 0.5 μg/ml
Experimental: as §1, with “To identify the mechanism by which anisomycin induced FoxP3, the activation of ATF2, p38, and JNK upon treatment with either anisomycin or PMA was compared. 4T1” for “4T1”
as §2
(§3) In order to study the mechanism of ATF2/c-Jun-mediated induction of FoxP3, chromatin immunoprecipitation (ChIP) was carried out as described in (Im et al., Nat Med 5: 412-417 (1999)) to identify an anisomycin-inducible binding site of the FoxP3 locus. Briefly, 4TI cells were treated with vehicle or anisomycin for 2 hours. The cells were sonicated and the chromatin was fixed with 1% paraformaldehyde. Anti-phospho-c-Jun or anti-phosphor-ATF2 antibodies or control rabbit IgG were used to precipitate chromatin associated with these proteins. The amounts of the specific DNA fragments were quantitated by real-time PCR and normalized against the genomic DNA preparation from the same cells. […] Untreated 4T1 cells barely had detectable amounts of phospho-ATF2 and phospho-c-Jun in the nuclei.

[5] = tested on: ATF2; test: Western blot of phospho-ATF2 in 4T1 cells; assay type: cell-based, mouse; conditions: for activation of ATF2: anisomycin 1 μg/ml, PMA 0.5 μg/ml
Experimental: as §1, with “To identify the mechanism by which anisomycin induced FoxP3, the activation of ATF2, p38, and JNK upon treatment with either anisomycin or PMA was compared. 4T1” for “4T1”
as §2, §3

[6] = tested on: FoxP3; test: Anisomycin-induced FoxP3 induction in 4T1 cells with kinase inhibitors; assay type: cell-based, mouse; conditions: inhibitor 2 μg/ml with anisomycin 1 μg/ml
[7] = tested on: P10 probe (AP1 site of FoxP3 enhancer); test: Electrophoretic mobility shift of P10 AP1 probe with 4T1 nuclear extracts; assay type: cell-based, mouse; conditions: nuclear extracts of anisomycin-treated 4T1 cells
Excerpt: Sequencing comparison identified a typical AP1 site within the P10. […] The sequence of nonmutated probe (P10) is […] (bold letters for core AP1 sequence; SEQ ID NO: 173), that for P10-Mt1 is […] (bold letter indicate mutations; SEQ ID NO: 174), while that for P10-Mt2 is […] (SEQ ID NO: 175).

[8] = tested on: FOXP3-encoding mRNA; test: Induction of FOXP3-encoding mRNA in cancer cell lines (RT-PCR); assay type: cell-based; conditions: thymoma BW5147, thymic epithelial cell 61.7, breast cancer TSA, treated 14 hr to 2 days
Experimental: A method was developed to induce FOXP3 expression in cancer cells by activating JNK, P38 and ATF2. Briefly, breast cancer and thymoma cell lines were treated with activators of JNK, P38 and ATF2, such a emetine and anisomycin for 14 hr to 2 days. The cells were analyzed for expression of FOXP3-encoding mRNA by RT-PCR.

[9] = tested on: FOXP3 transcripts; test: FOXP3 transcripts in primary mammary epithelial cultures of ATF2+/+ and ATF2-/- mice; assay type: cell-based, mouse
Experimental: ATF2± mice were obtained from the frozen embryo bank of the Jackson Laboratories and were crossed to produce ATF2+/+ and the ATF2−/− mice. […] Two independent primary cultures were obtained from two ATF2−/− females. Specifically, mouse mammary fat pads were removed from 6 to 8-week-old virgin female mice and minced into small pieces. After collagenase digestion at 37° C. in a shaking incubator in DMEM medium supplemented with 5% fetal calf serum (FBS), cells were sieved through a 70-μm cell strainer (BD Falcon) to obtain a single cell suspension. The cells were cultured in DMEM medium supplemented with 10% FBS and 10 ng/ml epithelial growth factor (EGF). At day 3 of culture, fibroblast cells were removed by a short digestion with 0.05% trypsin-EDTA as less adherent cells.
The primary cultures were then assayed for expressioin of FOXP3 protein by Western blotting cell lysates of the cultures with antibodies specific for FOXP3. The primary transcripts also were assayed for expression of FOXP3 by real-time PCR.

[10] = tested on: TSA cells; test: Apoptosis: activated caspase 3 staining and DNA content; assay type: cell-based, mouse
Excerpt: Cells were stained for activated Capsase 3 and also tested for DNA contents. The % of gated cells was apoptotic based on their sub-2C DNA contents.

[11] = tested on: breast cancer cell lines MCF-7, BT474, TSA; test: Killing of breast cancer cell lines / MTT viability assay; assay type: cell-based, human, mouse
Experimental: Given the impact of FOXP3 activity on tumor growth and cell death, these compounds were also tested for their ability to kill cancer cells. […] The IC50 ranges between 30-100 ng/ml.
To determine whether anisomycin treatment causes apoptosis of breast cancer cells, the cytotoxic effect of anisomycin on several of breast cancer cell lines was measured by MTT assay. 10^4 cells/well of mouse cell line (TSA) or human breast cancer cell lines (TB474 or MCF7) were cultured in the presence of 25, 50, 100, 200, 400, or 800 ng/ml anisomycin for 48 hours. The amounts of viable cells were determined by MTT assay, with viability of the untreated cells defined as 100%. Both mouse (TSA) and human breast cancer cell lines (BT474, MCF-7) were highly susceptible to anisomycin, with an IC50 between 50-100 […].

[12] = tested on: FoxP3 locus P2 and P10 sites; test: ChIP of phospho-ATF2/phospho-c-Jun binding at the FoxP3 locus in 4T1 cells; assay type: cell-based, mouse
Experimental: as §3
In order to identify the FoxP3 sequence associated with p-ATF2 and p-c-Jun, the 5′ sequence of the FoxP3 gene was analyzed and 14 potential AP1 and CREB sites were identified. […]

[13] = tested on: TSA tumor cells; test: TSA tumor in mammary fat pads of BALb/c mice; assay type: in vivo; conditions: intraperitoneal, every 3 days for 8 times, I mg/mouse
Experimental: To test whether induction of FoxP3 by ATF2-FoxP3 pathway can be explored for breast cancer therapy, cells (5×10^5) of the TSA cell line were injected into the mammary fat pads of BALb/c mice. Five days later, when the cancer cells established locally, the mice were intraperitoneally treated with vehicle control or anisomycin every 3 days for 8 times at a dose of I mg/mouse.

[14] = tested on: FOXP3; test: FOXP3 silencing in HPEC: FOXP3 mRNA; assay type: cell-based, human; conditions: one week after infection
Experimental: (§4) To determine whether the endogenous FOXP3 in prostate epithelial cell lines is responsible for MYC repression, the FOXP3 locus was silenced with a lentiviral vector encoding shRNA for FOXP3. Human Prostate Epithelial Cells (HPEC) were purchased from Lonza Group Ltd (Switzerland) and were cultured with medium. An early passage of the HPEC were infected with lentivirus expressing either control shRNA or FOXP3 shRNA vector as described in Zuo et al., 2007, supra. Uninfected cells were removed by drug selection. At one week after infection, the levels of FOXP3 or MYC mRNA were quantitated by RT-PCR. Western blotting was also carried out using anti-FOXP3 or -MYC antibodies. Beta actin was used as a loading control.

[15] = tested on: MYC; test: FOXP3 silencing in HPEC: MYC transcript; assay type: cell-based, human; conditions: one week after infection
Experimental: as §4

[16] = inhibitor 2 μg/ml with anisomycin 1 μg/ml

In the case of Nc1ncn([C@H]2C[C@H](O)[C@@H](CO)O2)c(=O)n1 [5-AZA, 5-aza-2′-deoxycytidine], the “induction of the FOXP3 gene” value [1] is reported as “two-fold”.
With CCCCCCCCCCCCCC(=O)O[C@@H]1[C@@H](C)[C@@]2(O)[C@@H](C=C(CO)C[C@]3(O)C(=O)C(C)=C[C@@H]23)[C@@H]2C(C)(C)[C@]12OC(C)=O [PMA] the “activation of p38” value [2] was “activated”, the “activation of JNK” value [3] was “failed to activate” and the “activation of c-Jun” value [4] was “failed to activate”. The “activation of ATF2” value [5] was “activated”.
In the case of C[S+]([O-])c1ccc(-c2nc(-c3ccncc3)c(-c3ccc(F)cc3)[nH]2)cc1 (stereo not shown) [SB], the “inhibition of JNK activation by anisomycin” value [3, 16] is reported as “only partially”, the “inhibition of anisomycin-induced FoxP3 induction” value [6] is reported as “reduced, but did not eliminate” and the “inhibition of ATF2 activation by anisomycin” value [5, 16] is reported as “only partially”.
For COc1ccc(C[C@H]2NC[C@H](O)[C@H]2OC(C)=O)cc1 [anisomycin], the “activation of p38” value [2] was “activated”, the “activation of JNK” value [3] was “activation” and the “activation of c-Jun” value [4] was “activation”. The “phospho-c-Jun in the nuclear fraction” value ([4]; anisomycin 2 hours) was “major increase”, the “binding of nuclear extracts to nonmutated P10 probe (EMSA)” value [7] was “strong interaction” and the “induction of FOXP3-encoding mRNA” value [8] was “strong induction”. The “FOXP3 transcripts in ATF2+/+ epithelial cultures” value ([9]; ATF2+/+ primary mammary epithelial cells) was “further induced”, the “FoxP3 transcripts in ATF2-/- cells” value ([9]; ATF2-/- primary mammary epithelial cells) was “completely refractory” and the “active caspase 3 in cells with less than 2C DNA contents” value [10] was “increased expression of active caspase 3”. For the same compound, the “IC50 (cancer cell killing)” value ([11]; 48 hours) was 0.03 to 0.1 µg/mL, the “killing of cancer cells” value ([11]; within 48 hours) was “killed a substantial percentage of cancer cells” and the “inducibility of ATF2/cJun association with P2 site (ChIP)” value ([12]; P2, 4.8 kb 5′ of exon 1) was “not inducible”. For the same compound, the “enhancement of ATF2/cJun binding to P10 site (ChIP)” value ([12]; P10, 4.2 kb 3′ of exon 1) was “more than 2 fold”, the side effects [13] was “did not give obvious side effects” and the “growth of TSA tumor cells in syngeneic mammary pad” value ([13]; from day 5) was “nearly completely abrogated”. The “activation of ATF2” value [5] was “activated” and the “phospho-ATF2 in the nuclear fraction” value ([5]; anisomycin 2 hours) was “major increase”.
CC[C@H]1CN2CCc3cc(OC)c(OC)cc3[C@@H]2C[C@@H]1C[C@H]1NCCc2cc(OC)c(OC)cc21 [emetine] was tested, and the “induction of FOXP3-encoding mRNA” value [8] was “strong induction”.
“FoxP3 shRNA: lentiviral shRNA specific for FoxP3 used in mouse TSA cells (SEQ ID NO: 168) (AAGCCATGGCAATAGTTCCTT)” was tested, and the “expression of FOXP3 mRNA” value [14] was “major reduction” and the “level of MYC transcript” value [15] was “significantly elevated”.
